Results from patent publication US12509461B2, “Enhanced performance of amorphous solid and solubilized formulations for achieving therapeutic plasma concentrations” (BRISTOL-MYERS SQUIBB COMPANY, priority 2019, dated 2025).

Tests used:
[1] = Aqueous solubility and ionization of Compound (I); type: physicochemical
Excerpt: [drawing 2] and is referred to herein as “Compound (I)”. Compound (I), a process to prepare Compound (I), and methods of treatment employing Compound (I) are disclosed in U.S. Patent Application Publication No. 2016/0096839, which is assigned to the present assignee and incorporated herein by reference in its entirety. […] These characteristics of Compound (I) render it difficult to formulate for oral administration to achieve therapeutically effective blood levels.

[2] = Microcentrifuge dissolution test in 0.5% SIF in PBS pH 6.5; type: physicochemical; settings: control; 1000 μg/mL if all of drug had dissolved
Method: Microcentrifuge dissolution tests were performed in a 37° C. temperature-controlled box. Weighed 1 mg of sample into each of two 2.0 mL Sorenson microcentrifuge tubes. Added 1.8 mL of 0.5% SIF in phosphate buffered saline (PBS) (pH 6.5) to each tube and started the timer. Vortexed the samples for 1 minute on Setting 8 on a Fisher Vortex Genie 2. Centrifuged the samples for 1 minute at 13,000 rpm using an IEC Micromax microcentrifuge. When the timer reads 4 minutes, extracted 50 μL of supernatant from each microcentrifuge tube into a HPLC vial containing 250 μL of diluent (HPLC-grade 95:5 THF:Water). Vortexed the mixtures for 25 seconds. Repeated the steps for following time points: 10, 20, 40, and 90 minutes, and again at 20 hours.
Analyzed the samples by HPLC using the method below:
As a control, crystalline Compound (I) alone was evaluated using the same procedure. A sufficient amount of material was added so that the concentration of Compound (I) would have been 1000 μg/mL, if all of drug had dissolved.
The concentrations of Compound (I) obtained in these samples were used to determine the maximum dissolved concentration of Compound (I) in solution during the first ninety minutes of the test (MDC90), the area under the concentration-versus-time curve during the initial ninety minutes (AUC90).

| Compound | ionization ([1]; physiologically relevant region) | aqueous solubility ([1]; room temperature) | AUC90 [2] [µg/mL] | Cmax90 [2] [ng/mL] |
| --- | --- | --- | --- | --- |
| C[C@@H]1CCC[C@H](n2cnc(-c3cc(Cl)ccc3-n3cc(Cl)nn3)cc2=O)c2cc(ccn2)-c2c(cnn2C(F)F)NC1=O [Compound (I), (9R,13S)-13-{4-[5-chloro-2-(4-chloro-1H-1,2,3-triazol-1-yl)phenyl]-6-oxo-1,6-dihydropyrimidin-1-yl}-3-(difluoromethyl)-9-methyl-3,4,7,15-tetraazatricyclo[12.3.1.0^2,6]octadeca-1(18),2(6),4,14,16-pentaen-8-one] | non-ionizable | low aqueous solubility | – | – |
| C[C@@H]1CCC[C@H](n2cnc(-c3cc(Cl)ccc3-n3cc(Cl)nn3)cc2=O)c2cc(ccn2)-c2c(cnn2C(F)F)NC1=O [Crystalline API, (9R,13S)-13-{4-[5-chloro-2-(4-chloro-1H-1,2,3-triazol-1-yl)phenyl]-6-oxo-1,6-dihydropyrimidin-1-yl}-3-(difluoromethyl)-9-methyl-3,4,7,15-tetraazatricyclo[12.3.1.0^2,6]octadeca-1(18),2(6),4,14,16-pentaen-8-one] | – | – | 1810 | 26000 |
